Patent US20140162285A1, “Methods of Modulating Vesicular Trafficking” (The General Hospital Corporation, priority 2009, published 2014)
“Also recorded” adds a separate entry of the source. Peptide text beside a SMILES is read from it. * marks the point of attachment. Biotin = O=C1N[C@H]2[C@H](CS[C@H]2CCCCC(=O)*)N1

B1: a2N: recombinant N-terminal cytosolic tail, amino acid residues 1-402 of mouse V-ATPase a2-subunit (protein)
chain: MGSLFRSESMCLAQLFLQSGTAYECLSALGEKGLVQFRDLNQNVSSFQRKFVGEVKRCEELERILVYLVQEITRADIPLPEGEASPPAPPLKHVLEMQEQLQKLEVELREVTKNKEKLRKNLLELVEYTHMLRVTKTFLKRNVEFEPTYEEFPALENDSLLDYSCMQRLGAKLGFVSGLIQQGRVEAFERMLWRACKGYTIVTYAELDECLEDPETGEVIKWYVFLISFWGEQIGHKVKKICDCYHCHIYPYPNTAEERREIQEGLNTRIQDLYTVLHKTEDYLRQVLCKAAESVCSRVVQVRKMKAIYHMLNMCSFDVTNKCLIAEVWCPEVDLPGLRRALEEGSRESGATIPSFMNTIPTKETPPTLIRTNKFTEGFQNIVDAYGVGSYREVNPALFTII
modifications: left off: small tags and cut ends
notes: recombinant N-terminal cytosolic tail, amino acid residues 1-402 of mouse V-ATPase a2-subunit

Legend:
Sec7-domain of ARNO = biological target: T1, Sec7-domain of ARNO (Homo sapiens, UniProt Q99418); test: a2N-derived peptide pull-down with GST-Sec7 domain; type: binding; details: GST-Sec7-6His
T1 construct: iii) 61-252aa, Sec7 domain; GST (N, cleaved yes); made in house; host or cells: E. coli BL21(DE3)
T1 sequence (Q99418 61-252): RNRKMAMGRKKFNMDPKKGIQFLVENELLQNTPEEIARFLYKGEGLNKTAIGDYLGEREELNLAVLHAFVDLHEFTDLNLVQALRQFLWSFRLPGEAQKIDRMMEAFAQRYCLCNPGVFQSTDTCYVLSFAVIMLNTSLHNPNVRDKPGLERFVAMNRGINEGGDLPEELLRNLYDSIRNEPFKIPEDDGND
Description: FIGS. 5A-C are a set of three images of Western blots showing the identification of interaction motif of a2N that is involved in specific binding with the Sec7 domain of ARNO. 5A, The catalytic Sec7 domain of ARNO interacts with two a2N-derived peptides, a2N-01 and a2N-03, in pull-down experiments. The peptide pull-down assay was performed with six a2N-derived interaction peptides immobilized on streptavidin-beads and incubated with purified recombinant GST-only or GST-Sec7 domain. Interacting complexes were eluted and analyzed by Western blotting using monoclonal anti-GST antibodies as described below. The loading controls for GST-only (lane 1) or GST-Sec7 (lane 2) are shown. […] The peptide pull-down assay was performed with peptides a2N-01 and a2N-03 immobilized on streptavidin-beads and incubated with purified recombinant GST-PH domain (5B) or GST-PB domain (5C). Interacting complexes were eluted and analyzed by Western blotting using monoclonal anti-GST antibodies. […]
These a2N-derived peptides were immobilized by an N-terminal biotin-tag, which ensured the same efficiency and equivalent binding to streptavidin-agarose beads. […] After washing beads four times in ice-cold binding buffer, the interacting complexes were eluted by boiling in SDS-PAGE sample buffer for 10 min at 95° C., resolved by SDS-PAGE and analyzed by Western blotting using monoclonal anti-GST antibody.

ARNO Sec7-domain = biological target: T2, ARNO Sec7-domain (Homo sapiens, UniProt Q99418); test: GST pull-down of in vitro translated a2N with ARNO Sec7-domain; type: binding; details: Western blot anti-a2N
T2 construct: iii) 61-252aa, Sec7 domain; made in house; host or cells: E. coli BL21(DE3)
T2 sequence (Q99418 61-252): T1 sequence (Q99418 61-252)
Description: The purified recombinant GST-ARNO(wt) and GST-tagged ARNO domain constructs ([…]) were incubated with 10 μl of in vitro translated 6His-a2N recombinant protein at 4° C. for 2 hours in 500 μl of binding buffer (10 mM HEPES, 1 mM EDTA, 1 mM DTT, 100 mM NaCl, 10% glycerol, 0.1% NP-40) with gentle rotation. Then the interacting recombinant proteins were immobilized on glutathione beads by incubation with 50 μl of 50% glutathione Sepharose 4B slurry for 2 hours at 4° C. The beads were collected by centrifugation and washed 5 times with 500 μl ice-cold binding buffer. Interacting proteins were eluted by boiling in SDS-PAGE sample buffer for 10 min at 95° C., resolved by SDS-PAGE and analyzed by Western blotting using polyclonal anti-a2N antibodies. […]
To examine the ability of these well-defined and functionally distinct domains of ARNO to interact with a2N1-402, full-length ARNO(wt) and its four domains were cloned separately for bacterial expression of recombinant proteins (FIG. 3). […] Interacting proteins were detected by western blot analysis with a2-specific antibodies as described above.

| Molecule | interaction with Sec7-domain of ARNO (Sec7-domain of ARNO) | interaction of a2N with ARNO Sec7-domain (ARNO Sec7-domain) |
| --- | --- | --- |
| CSCC[C@H](NC(=O)CCCC[C@@H]1SC[C@@H]2NC(=O)N[C@@H]21)C(=O)NCC(=O)N[C@@H](CO)C(=O)N[C@@H](CC(C)C)C(=O)N[C@@H](Cc1ccccc1)C(=O)N[C@@H](CCCNC(=N)N)C(=O)N[C@@H](CO)C(=O)N[C@@H](CCC(=O)O)C(=O)N[C@@H](CO)C(=O)N[C@@H](CCSC)C(=O)N[C@@H](CS)C(=O)N[C@@H](CC(C)C)C(=O)N[C@@H](C)C(=O)N[C@@H](CCC(N)=O)C(=O)N[C@@H](CC(C)C)C(=O)N[C@@H](Cc1ccccc1)C(=O)N[C@@H](CC(C)C)C(=O)N[C@@H](CS)C(=O)O [a2N-01, Bio-MGSLFRSE SMCLAQLFL-Cys] (Biotin-MGSLFRSESMCLAQLFLC-OH; N-terminus and C-terminus assumed) | interact; also recorded: specifically interacts | – |
| B1 | – | interacts strongly |
